Experiment [1] has as its target T1, human KOR (Homo sapiens, UniProt P41145). Kind of experiment: GloSensor assay, Gi-mediated cAMP inhibition in HEK-293T cells transfected with human KOR.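 As to agonist at KOR (pIC50): value taken from a statement in the text not a table.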 In kind it is cell-based. Conditions: for G-Protein Bias factor (IC50 -Glosensor/- EC50 - Tango): KOR, GloSensor versus Tango.
Target sequence in this assay (P41145 whole entry): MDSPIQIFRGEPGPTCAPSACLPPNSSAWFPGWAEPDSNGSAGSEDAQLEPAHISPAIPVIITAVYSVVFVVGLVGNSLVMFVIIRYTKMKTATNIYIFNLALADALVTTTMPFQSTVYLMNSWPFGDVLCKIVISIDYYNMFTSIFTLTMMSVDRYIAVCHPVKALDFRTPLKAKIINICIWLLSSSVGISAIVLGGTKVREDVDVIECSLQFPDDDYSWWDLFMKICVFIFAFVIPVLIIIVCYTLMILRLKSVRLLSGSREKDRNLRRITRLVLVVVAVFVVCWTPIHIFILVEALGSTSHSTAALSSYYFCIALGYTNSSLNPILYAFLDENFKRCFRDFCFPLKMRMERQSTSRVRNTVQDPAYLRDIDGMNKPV
The next experiment deals with DOR (Homo sapiens, UniProt P41143). Kind of experiment: GloSensor assay at DOR. The experiment is classed as cell-based. Conditions: given as Log IC50 (negative values).
The target of the next experiment is MOR (Homo sapiens, UniProt P35372). The experiment is described as follows: GloSensor assay at MOR. Conditions: given as Log IC50 (negative values). In kind it is cell-based.
Experiment [2] addresses T1, human KOR. Kind of experiment: β-arrestin2 Tango assay in HTLA cells transiently transfected with human KOR. As to conditions: Table 2, KOR; for EC50: read-out: B-arrestin Tango Assay (pEC50) (converted). In kind it is cell-based.
Target sequence in this assay (P41145 whole entry, added parts left off): as the sequence (P41145 whole entry) above
Experiment [3] concerns paclitaxel (PTX)-treated mice. The experiment is described as follows: Paclitaxel-induced peripheral neuropathy model. In kind it is in vivo. As to conditions: 8abd 5 and 10 mg/kg p.o.; duloxetine 10 mg/kg; 16 days.
[4] abbreviates: Table 2, KOR, read-out: GloSensor Assay (pIC50) (converted).
Where [5] appears, read: given as Log IC50 (negative values), agonist activity, inhibition of FSK-stimulated cAMP, read-out: GloSensor Assay (Log IC50) KOR (converted).
The mark [6] stands for this setting: read-out: agonist at KOR (pIC50) (converted).

Read-outs that look alike come from different tables or passages of the source.

MOR, sequence (P35372 whole entry): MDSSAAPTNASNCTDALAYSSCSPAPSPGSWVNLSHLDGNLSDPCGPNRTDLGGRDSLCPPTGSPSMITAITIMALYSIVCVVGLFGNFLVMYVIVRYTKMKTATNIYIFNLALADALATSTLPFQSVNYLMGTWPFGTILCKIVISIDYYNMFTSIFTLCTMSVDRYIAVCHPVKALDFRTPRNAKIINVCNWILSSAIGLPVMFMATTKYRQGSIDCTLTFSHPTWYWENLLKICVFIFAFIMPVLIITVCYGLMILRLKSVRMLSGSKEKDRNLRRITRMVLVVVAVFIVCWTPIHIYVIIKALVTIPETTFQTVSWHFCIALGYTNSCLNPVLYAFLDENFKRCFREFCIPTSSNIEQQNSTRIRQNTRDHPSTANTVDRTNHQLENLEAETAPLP
DOR, sequence (P41143 whole entry): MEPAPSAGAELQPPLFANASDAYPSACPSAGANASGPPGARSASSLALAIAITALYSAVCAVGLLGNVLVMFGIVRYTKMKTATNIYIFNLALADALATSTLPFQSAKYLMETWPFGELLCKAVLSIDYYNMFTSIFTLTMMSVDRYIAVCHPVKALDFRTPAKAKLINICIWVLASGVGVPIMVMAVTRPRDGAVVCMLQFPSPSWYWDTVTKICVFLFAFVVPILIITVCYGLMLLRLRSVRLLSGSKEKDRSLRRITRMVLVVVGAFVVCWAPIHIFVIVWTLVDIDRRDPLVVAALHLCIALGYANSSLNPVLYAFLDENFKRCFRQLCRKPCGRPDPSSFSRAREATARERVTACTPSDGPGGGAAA

Regarding `Fc1ccc(-n2c[n+]3ccc4c5ccccc5[nH]c4c3c2-c2ccccc2Cl)cc1.[Cl-]` [8aed, 1-(2-Chlorophenyl)-2-(4-fluorophenyl)-2,11-dihydroimidazo[1′,5′:1,2]pyrido[3,4-b]indol-4-ium chloride], the “G-Protein Bias factor (IC50 -Glosensor/- EC50 - Tango)” value (“G-Protein Bias factor” for short) on human KOR [1] worked out at 1.06. In addition, the IC50 on human KOR [1] (setting [4]) was 10 nM; at human KOR [1] (setting [5]), 10 nM; on human KOR [1] (setting [6]) it was below 31.6 nM; at DOR, above 10000 nM; against MOR, above 10000 nM. Moreover, on human KOR [2], the EC50 was 115 nM.
On to `Clc1ccc(-c2c3c4[nH]c5ccccc5c4cc[n+]3cn2-c2ccc(Br)cc2)cc1.[Cl-]` [8adb, 2-(4-Bromophenyl)-1-(4-chlorophenyl)-2,11-dihydroimidazo[1′,5′:1,2]pyrido[3,4-b]indol-4-ium chloride], for which, at human KOR [1], the “G-Protein Bias factor” value is listed as 1.44. The IC50 on human KOR [1] (setting [4]) is 20 nM; on human KOR [1] (setting [5]), 20 nM; at human KOR [1] (setting [6]), below 31.6 nM; on DOR, above 10000 nM; at MOR, above 10000 nM. Further, the EC50 on human KOR [2] was 550 nM.
Regarding “2-(4-Fluorophenyl)-1-(4-methoxyphenyl)-2,11-dihydroimidazo[1′,5′:1,2]pyrido[3,4-b]indol-4-ium [8aod]”, on human KOR [1], the “G-Protein Bias factor” value amounted to 1.68. Moreover, the “GloSensor Assay (pIC50)” value on human KOR [1] (Table 2, KOR) worked out at 7.9. Further, the “GloSensor Assay (Log IC50) KOR” value on human KOR [1] (given as Log IC50 (negative values), agonist activity, inhibition of FSK-stimulated cAMP) was −7.9. Besides, the “GloSensor Assay (Log IC50) DOR” value on DOR is reported as above −5. In addition, the “GloSensor Assay (Log IC50) MOR” value at MOR is reported as above −5. Besides, the “B-arrestin Tango Assay (pEC50)” value on human KOR [2] is 6.22.
On to `Brc1ccc(-n2c[n+]3ccc4c5ccccc5[nH]c4c3c2-c2ccccc2Br)cc1.[Cl-]` [8acb, 1-(2-Bromophenyl)-2-(4-bromophenyl)-2,11-dihydroimidazo[1′,5′:1,2]pyrido[3,4-b]indol-4-ium chloride], for which, at human KOR [1], the “G-Protein Bias factor” value was 3.6. Further, the IC50 was 0.115 nM at human KOR [1] (setting [4]); 2.51 nM at human KOR [1] (setting [5]); below 31.6 nM at human KOR [1] (setting [6]); above 10000 nM against DOR; above 10000 nM against MOR. Besides, the EC50 at human KOR [2] was 457 nM.
For `Brc1ccc(-c2c3c4[nH]c5ccccc5c4cc[n+]3cn2-c2cccc(Br)c2)cc1.[Cl-]` [8abe, 2-(3-Bromophenyl)-1-(4-bromophenyl)-2,11-dihydroimidazo[1′,5′:1,2]pyrido[3,4-b]indol-4-ium chloride], on human KOR [1], the “G-Protein Bias factor” value came to 1.72. In addition, the IC50 is 12.9 nM at human KOR [1] (setting [4]); 1.26 nM at human KOR [1] (setting [5]); below 31.6 nM on human KOR [1] (setting [6]); above 10000 nM at DOR; above 10000 nM on MOR. For the same compound, the EC50 at human KOR [2] was 676 nM.
With `Cc1ccc(-c2c3c4[nH]c5ccccc5c4cc[n+]3cn2-c2ccc(F)cc2)cc1.[Cl-]` [8akd, 2-(4-Fluorophenyl)-1-(p-tolyl)-2,11-dihydroimidazo[1′,5′:1,2]pyrido[3,4-b]indol-4-ium chloride], the “G-Protein Bias factor” value at human KOR [1] amounted to 3.15. In addition, the IC50 was 0.641 nM at human KOR [1] (setting [4]); 1.58 nM on human KOR [1] (setting [5]); below 31.6 nM at human KOR [1] (setting [6]); above 10000 nM at DOR; above 10000 nM against MOR. In addition, the EC50 at human KOR [2] was 916 nM.
For the compound `Clc1ccc(-c2c3c4[nH]c5ccccc5c4cc[n+]3cn2-c2ccc(Cl)cc2)cc1.[Cl-]` [8adc, 1,2-Bis(4-chlorophenyl)-2,11-dihydrolmidazo[1′,5′:1,2]pyrido[3,4-b]indol-4-ium chloride], the “G-Protein Bias factor” value at human KOR [1] is given as 3.28. For the same compound, the IC50 on human KOR [1] (setting [4]) is 0.501 nM; on human KOR [1] (setting [5]), 1.58 nM; at human KOR [1] (setting [6]), below 31.6 nM; against DOR it was above 10000 nM; on MOR it was above 10000 nM. Moreover, the EC50 on human KOR [2] was 955 nM.
Turning to `Clc1ccc(-n2c[n+]3ccc4c5ccccc5[nH]c4c3c2-c2ccccc2Cl)cc1.[Cl-]` [8aec, 1-(2-Chlorophenyl)-2-(4-chlorophenyl)-2,11-dihydroimidazo[1′,5′:1,2]pyrido[3,4-b]indol-4-ium chloride], the “G-Protein Bias factor” value at human KOR [1] was determined as 1.23. The IC50 at human KOR [1] (setting [4]) is 7.94 nM; at human KOR [1] (setting [5]), 7.94 nM; at human KOR [1] (setting [6]), below 31.6 nM; at DOR, above 10000 nM; on MOR, 501 nM. In addition, the EC50 at human KOR [2] is 135 nM.
For the compound `Clc1ccc(-n2c[n+]3ccc4c5ccccc5[nH]c4c3c2-c2ccc(Br)cc2)cc1.[Cl-]` [8abc, 1-(4-Bromophenyl)-2-(4-chlorophenyl)-2,11-dihydromidazo[1′,5′:1,2]pyrido[3,4-b]indol-4-ium chloride], the “G-Protein Bias factor” value on human KOR [1] was 2.35. Moreover, the IC50 at human KOR [1] (setting [4]) is 1.12 nM; on human KOR [1] (setting [5]) it was 0.631 nM; on human KOR [1] (setting [6]), below 31.6 nM; on DOR it was above 10000 nM; against MOR, above 10000 nM. Further, the EC50 on human KOR [2] is 251 nM.
As to `Fc1ccc(-n2c[n+]3ccc4c5ccccc5[nH]c4c3c2-c2ccccc2Br)cc1.[Cl-]` [8acd, 1-(2-Bromophenyl)-2-(4-fluorophenyl)-2,11-dihydroimidazo[1′,5′:1,2]pyrido[3,4-b]indol-4-ium chloride], the “G-Protein Bias factor” value at human KOR [1] came out at 3. The IC50 at human KOR [1] (setting [4]) is 1.58 nM; on human KOR [1] (setting [5]) it was 1.58 nM; at human KOR [1] (setting [6]) it was below 31.6 nM; against DOR, above 10000 nM; at MOR, above 10000 nM. Besides, on human KOR [2], the EC50 was 1580 nM.
With `Clc1ccc(-n2c[n+]3ccc4c5ccccc5[nH]c4c3c2-c2ccccc2Br)cc1.[Cl-]` [8acc, 1-(2-Bromophenyl)-2-(4-chlorophenyl)-2,11-dihydrolmidazo[1′,5′:1,2]pyrido[3,4-b]indol-4-ium], the “G-Protein Bias factor” value on human KOR [1] is listed as 2.89. Besides, the IC50 on human KOR [1] (setting [4]) was 0.589 nM; at human KOR [1] (setting [5]), 1.58 nM; on human KOR [1] (setting [6]), below 31.6 nM; on DOR it was 3980 nM; at MOR it was 2000 nM. Further, at human KOR [2], the EC50 is 457 nM.
As to `Fc1ccc(-n2c[n+]3ccc4c5ccccc5[nH]c4c3c2-c2ccc(Cl)cc2)cc1.[Cl-]` [8add, 1-(4-Chlorophenyl)-2-(4-fluorophenyl)-2,11-dihydroimidazo[1′,5′:1,2]pyrido[3,4-b]indol-4-ium chloride], the “G-Protein Bias factor” value at human KOR [1] came to 2.67. Also, the IC50 on human KOR [1] (setting [4]) is 2.94 nM; on human KOR [1] (setting [5]), 3.98 nM; on human KOR [1] (setting [6]), below 31.6 nM; at DOR, above 10000 nM; at MOR it was above 10000 nM. The EC50 on human KOR [2] was 1380 nM.
`Clc1ccc(-n2c[n+]3ccc4c5ccccc5[nH]c4c3c2-c2cccc(Cl)c2)cc1` [8afc, 1-(3-Chlorophenyl)-2-(4-chlorophenyl)-2,11-dihydrolmidazo[1′,5′:1,2]pyrido[3,4-b]indol-4-ium chloride]: the results for the IC50 at human KOR [1] (setting [5]), at DOR and at MOR were 316 nM, above 10000 nM and above 10000 nM, respectively.
On to `Cn1c2ccccc2c2cc[n+]3cn(-c4ccc(Cl)cc4)c(-c4ccc(Cl)cc4)c3c21` [8ddc, 1,2-Bis(4-chlorophenyl)-11-methyl-2,11-dihydroimidazo[1′,5′:1,2]pyrido[3,4-b]indol-4-iumchloride], for which the IC50 at human KOR [1] (setting [5]), on DOR and against MOR was above 10000 nM throughout.
As to `Fc1ccc(-c2c3c4[nH]c5ccccc5c4cc[n+]3cn2-c2ccc(Br)cc2)cc1` [8agb, 2-(4-Bromophenyl)-1-(4-fluorophenyl)-2,11-dihydroimidazo[1′,5′:1,2]pyrido[3,4-b]indol-4-ium chloride], the IC50 on human KOR [1] (setting [5]), at DOR and on MOR was above 10000 nM each time.
Consider `Clc1ccccc1-c1c2c3[nH]c4ccccc4c3cc[n+]2cn1-c1ccccc1` [8aea, 1-(2-Chlorophenyl)-2-phenyl-2,11-dihydroimidazo[1′,5′:1,2]pyrido[3,4-b]indol-4-ium chloride], for which the IC50 at human KOR [1] (setting [5]), against DOR and against MOR was above 10000 nM in each case.
Turning to `c1ccc(-c2c3c4[nH]c5ccccc5c4cc[n+]3cn2-c2ccccc2)cc1` [8aaa, 1,2-Diphenyl-2,11-dihydroimidazo[1′,5′:1,2]pyrido[3,4-b]indol-4-ium chloride], the IC50 at human KOR [1] (setting [5]), at DOR and against MOR was above 10000 nM throughout.
For `CNCC[C@H](Oc1cccc2ccccc12)c1cccs1` [duloxetine, reference compound], in experiment [3], the “mechanical pain (mechanical hyperalgesia, Von frey hair test), chronic administration” value is given as “significantly improved” and the “thermal hyperalgesia (Hargreaves test), chronic administration” value is reported as “significantly improved”.
`COC(=O)c1cc2c3ccccc3[nH]c2c2c(-c3ccc(Br)cc3)n(-c3ccc(F)cc3)c[n+]12` [8bbd, 1-(4-Bromophenyl)-2-(4-fluorophenyl)-5-(methoxycarbonyl)-2,11-dihydroimidazo[1′,5′:1,2]pyrido[3,4-b]indol-4-iumchloride]: the IC50 at human KOR [1] (setting [5]), on DOR and on MOR was above 10000 nM in each case.
Take `COc1ccc(Cn2c[n+]3ccc4c5ccccc5[nH]c4c3c2-c2ccc(Br)cc2)cc1` [9aae]: the IC50 was 3310 nM on human KOR [1] (setting [5]), above 10000 nM against DOR and above 10000 nM against MOR.
In the case of `c1ccc(-n2c[n+]3ccc4c5ccccc5[nH]c4c3c2-c2cc3ccccc3o2)cc1` [8amd, 1-(Benzofuran-2-yl)-2-phenyl-2,11-dihydroimidazo[1′,5′:1,2]pyrido[3,4-b]indol-4-ium chloride], the results for the IC50 on human KOR [1] (setting [5]), at DOR and at MOR were 39.8 nM, above 10000 nM and above 10000 nM, respectively.

(Values after patent publication US20250368645A1, “BETA CARBOLINE ANALOGUES AS SELECTIVE AND BIASED KAPPA OPIOID RECEPTORS AGONISTS FOR TREATING VARIOUS ASSOCIATED PATHOPHYSIOLOGICAL CONDITIONS” (COUNCIL OF SCIENTIFIC AND INDUSTRIAL RESEARCH, priority 2022, published 2025).)
